Like-named read-outs stand apart in the source and are kept apart here.
How the values were obtained:
Type in all cases: in vivo
[1] = test system: morningglory (Ipomoea spp.); assay: Test B pre-/postemergence plant response; conditions: for pest or weed control at 500 g/ha: 500 g ai/ha
Summary of the method: (§1)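 Evaluation is visual, about 10 days after application, rating injury from 0 (none) to 100 (complete control) relative to untreated controls. Application was a preemergence soil spray on seeded pots or a postemergence spray on one- to two-leaf plants.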

[2] = test system: velvetleaf (Abutilon theophrasti); assay: Test B pre-/postemergence plant response; conditions: for pest or weed control at 500 g/ha: 500 g ai/ha
Summary of the method: as §1

[3] = test system: large (Lg) crabgrass (Digitaria sanguinalis); assay: Test B pre-/postemergence plant response; conditions: for pest or weed control at 500 g/ha: 500 g ai/ha
Summary of the method: as §1

[4] = test system: nightshade (eastern black nightshade, Solanum ptycanthum); assay: Test F pre-/postemergence plant response; conditions: Solanum, pre-emergence, scale 0 to 100, read-out: Plant response rating, Nightshade
Summary of the method: (§2)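 In a greenhouse, compounds carried in a non-phytotoxic surfactant-containing solvent mixture were applied to soil at planting and to young 1- to 4-leaf plants. About two to three weeks (14 to 21 days) afterward, each species was compared with controls and rated visually from 0 to 100.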

[5] = test system: giant foxtail (Setaria faberii); assay: Test F pre-/postemergence plant response; conditions: Setaria faberi, pre-emergence, scale 0 to 100, read-out: Plant response rating, Foxtail, Giant
Summary of the method: as §2

[6] = test system: fall panicum (Panicum dichotomiflorum); assay: Test F pre-/postemergence plant response; conditions: Panicum dichotomiflorum, scale 0 to 100, read-out: Plant response rating, Panicum, Fall
Summary of the method: as §2

[7] = test system: morningglory (Ipomoea coccinea); assay: Test F pre-/postemergence plant response; conditions: Ipomoea, pre-emergence, scale 0 to 100, read-out: Plant response rating, Morningglory
Summary of the method: as §2

[8] = test system: field bindweed (Convolvulus arvensis); assay: Test F pre-/postemergence plant response; conditions: Convolvulus arvensis, scale 0 to 100, read-out: Plant response rating, Field Bindweed
Summary of the method: as §2

kochia (Kochia scoparia) = assay: Test F pre-/postemergence plant response; conditions: Bassia scoparia, pre-emergence, scale 0 to 100, read-out: Plant response rating, Kochia
Summary of the method: as §2

[9] = test system: large (Lg) crabgrass (Digitaria sanguinalis); assay: Test F pre-/postemergence plant response; conditions: Digitaria sanguinalis, pre-emergence, scale 0 to 100, read-out: Plant response rating, Crabgrass, Large
Summary of the method: as §2

[10] = test system: waterhemp_RES2 (ALS & HPPD resistant common waterhemp, Amaranthus rudis); assay: Test F postemergence plant response; conditions: scale 0 to 100
Summary of the method: (§3)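 Rated visually versus controls, 0 (no effect) to 100 (complete control), after 14–21 days in greenhouse. Compounds were sprayed postemergence on seedlings at 1- to 4-leaf stage, 2–18 cm tall.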

[11] = test system: waterhemp_RES1 (ALS & Triazine resistant common waterhemp, Amaranthus rudis); assay: Test F postemergence plant response; conditions: scale 0 to 100
Summary of the method: as §3

[12] = Preemergence, 125 g ai/ha, 0 to 100 scale (0 no effect, 100 complete control)
[13] = post-emergence, 8 g ai/ha Postemergence
[14] = post-emergence, 16 g ai/ha Postemergence
[15] = post-emergence, 31 g ai/ha Postemergence
[16] = post-emergence, 62 g ai/ha Postemergence
[17] = post-emergence, 125 g ai/ha Postemergence
[18] = pre-emergence, 8 g ai/ha Preemergence
[19] = pre-emergence, 16 g ai/ha Preemergence
[20] = pre-emergence, 31 g ai/ha Preemergence
[21] = pre-emergence, 125 g ai/ha Preemergence

For FC(F)(F)c1cc(-c2ccccc2Oc2ncc(Cl)cn2)no1 [Compound 200, 5-chloro-2-[2-[5-(trifluoromethyl)-3-isoxazolyl]phenoxy]pyrimidine], the pest or weed control at 125 g/ha ([1]; Ipomoea, post-emergence, 240 h, 125 g ai/ha, postemergence, 0 to 100 scale, 0 no effect, 100 complete control, read-out: Plant response rating, Morningglory) was 90%, the pest or weed control at 500 g/ha ([1]; Ipomoea, post-emergence, 240 h, postemergence, 0 to 100 scale, 0 no effect, 100 complete control, read-out: Plant response rating, Morningglory) was 100% and the pest or weed control at 500 g/ha ([1]; Ipomoea, pre-emergence, 240 h, Preemergence, 0 to 100 scale where 0 is no effect and 100 is complete control, read-out: Plant response rating, Morningglory) was 100%. The “Morningglory plant response rating” value [1, 12] was 20, the pest or weed control at 125 g/ha ([2]; Abutilon theophrasti, post-emergence, 240 h, 125 g ai/ha, postemergence, 0 to 100 scale, 0 no effect, 100 complete control, read-out: Plant response rating, Velvetleaf) was 100% and the pest or weed control at 500 g/ha ([2]; Abutilon theophrasti, post-emergence, 240 h, postemergence, 0 to 100 scale, 0 no effect, 100 complete control, read-out: Plant response rating, Velvetleaf) was 100%. The pest or weed control at 500 g/ha ([2]; Abutilon theophrasti, pre-emergence, 240 h, Preemergence, 0 to 100 scale where 0 is no effect and 100 is complete control, read-out: Plant response rating, Velvetleaf) was 90%, the “Velvetleaf plant response rating” value [2, 12] was 80 and the pest or weed control at 125 g/ha ([3]; Digitaria sanguinalis, post-emergence, 240 h, 125 g ai/ha, postemergence, 0 to 100 scale, 0 no effect, 100 complete control, read-out: Plant response rating, Crabgrass, Large) was 100%. For the same molecule, the pest or weed control at 500 g/ha ([3]; Digitaria sanguinalis, post-emergence, 240 h, postemergence, 0 to 100 scale, 0 no effect, 100 complete control, read-out: Plant response rating, Crabgrass, Large) was 100%, the pest or weed control at 500 g/ha ([3]; Digitaria sanguinalis, pre-emergence, 240 h, Preemergence, 0 to 100 scale where 0 is no effect and 100 is complete control, read-out: Plant response rating, Crabgrass, Large) was 100% and the “Crabgrass, Large plant response rating” value [3, 12] was 100. For the same molecule, the pest or weed control at 8 g/ha ([4]; 8 g ai/ha Preemergence) was 0%, the pest or weed control at 16 g/ha ([4]; 16 g ai/ha Preemergence) was 35% and the pest or weed control at 31 g/ha ([4]; 31 g ai/ha Preemergence) was 60%. The pest or weed control at 125 g/ha ([4]; 125 g ai/ha Preemergence) was 98%, the pest or weed control at 62 g/ha ([4]; Preemergence) was 98% and the pest or weed control at 8 g/ha ([5]; 8 g ai/ha Preemergence) was 0%. The pest or weed control at 16 g/ha ([5]; 16 g ai/ha Preemergence) was 35%, the pest or weed control at 31 g/ha ([5]; 31 g ai/ha Preemergence) was 65% and the pest or weed control at 62 g/ha ([5]; 62 g ai/ha Preemergence) was 100%. The pest or weed control at 125 g/ha ([5]; 125 g ai/ha Preemergence) was 100%, the pest or weed control at 8 g/ha [6, 13] was 5% and the pest or weed control at 16 g/ha [6, 14] was 5%. It also gave a pest or weed control at 31 g/ha [6, 15] of 5%, a pest or weed control at 62 g/ha [6, 16] of 5% and a pest or weed control at 125 g/ha [6, 17] of 15%. It also gave a pest or weed control at 8 g/ha [6, 18] of 0%, a pest or weed control at 16 g/ha [6, 19] of 70% and a pest or weed control at 31 g/ha [6, 20] of 35%. For the same molecule, the pest or weed control at 125 g/ha [6, 21] was 100%, the pest or weed control at 62 g/ha ([6]; pre-emergence, Preemergence) was 98% and the pest or weed control at 8 g/ha ([7]; 8 g ai/ha Preemergence) was 0%. The pest or weed control at 16 g/ha ([7]; 16 g ai/ha Preemergence) was 0%, the pest or weed control at 31 g/ha ([7]; 31 g ai/ha Preemergence) was 0% and the pest or weed control at 125 g/ha ([7]; 125 g ai/ha Preemergence) was 15%. For the same molecule, the pest or weed control at 62 g/ha ([7]; Preemergence) was 0%, the pest or weed control at 8 g/ha [8, 13] was 20% and the pest or weed control at 16 g/ha [8, 14] was 20%. It also gave a pest or weed control at 31 g/ha [8, 15] of 35%, a pest or weed control at 62 g/ha [8, 16] of 35% and a pest or weed control at 125 g/ha [8, 17] of 35%. For the same molecule, the pest or weed control at 8 g/ha [8, 18] was 0%, the pest or weed control at 16 g/ha [8, 19] was 0% and the pest or weed control at 31 g/ha [8, 20] was 30%. For the same molecule, the pest or weed control at 62 g/ha ([8]; pre-emergence, 62 g ai/ha Preemergence) was 30%, the pest or weed control at 125 g/ha [8, 21] was 30% and the pest or weed control at 8 g/ha (kochia (Kochia scoparia); 8 g ai/ha Preemergence) was 20%. It also gave a pest or weed control at 16 g/ha (kochia (Kochia scoparia); 16 g ai/ha, Preemergence) of 25%, a pest or weed control at 31 g/ha (kochia (Kochia scoparia); 31 g ai/ha, Preemergence) of 50% and a pest or weed control at 125 g/ha (kochia (Kochia scoparia); 125 g ai/ha, Preemergence) of 100%. It also gave a pest or weed control at 62 g/ha (kochia (Kochia scoparia); Preemergence) of 80%, a pest or weed control at 8 g/ha ([9]; 8 g ai/ha Preemergence) of 0% and a pest or weed control at 16 g/ha ([9]; 16 g ai/ha Preemergence) of 50%. It also gave a pest or weed control at 31 g/ha ([9]; 31 g ai/ha Preemergence) of 85%, a pest or weed control at 62 g/ha ([9]; 62 g ai/ha Preemergence) of 95% and a pest or weed control at 125 g/ha ([9]; 125 g ai/ha Preemergence) of 100%. For the same molecule, the “Plant response rating, Waterhemp_RES2” value ([10]; 8 g ai/ha Postemergence) was 75, the “Plant response rating, Waterhemp_RES2” value ([10]; 16 g ai/ha Postemergence) was 95 and the “Plant response rating, Waterhemp_RES2” value ([10]; 31 g ai/ha Postemergence) was 95. For the same molecule, the “Plant response rating, Waterhemp_RES2” value ([10]; 62 g ai/ha Postemergence) was 98, the “Plant response rating, Waterhemp_RES2” value ([10]; 125 g ai/ha Postemergence) was 98 and the “Plant response rating, Waterhemp_RES1” value ([11]; 8 g ai/ha Postemergence) was 70. The “Plant response rating, Waterhemp_RES1” value ([11]; 16 g ai/ha Postemergence) was 75, the “Plant response rating, Waterhemp_RES1” value ([11]; 31 g ai/ha Postemergence) was 90 and the “Plant response rating, Waterhemp_RES1” value ([11]; 62 g ai/ha Postemergence) was 95. For the same molecule, the “Plant response rating, Waterhemp_RES1” value ([11]; 125 g ai/ha Postemergence) was 98.

From patent publication US10131652B2, “Pyrimidinyloxy benzene derivatives as herbicides” (E. I. DU PONT DE NEMOURS AND COMPANY, priority 2014, dated 2018)
